Where two headings read alike, the source gives them in different places.

For test [1], the target named is biotinylated human Gal-3 (hGal-3) (Homo sapiens, UniProt P17931). Briefly: Competitive binding assay: biotinylated hGal-3 binding to microplate-adsorbed asialofetuin (ASF), spectrophotometric. The essentials: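 Competitive binding of biotinylated hGal-3 to plate-adsorbed asialofetuin was measured with serially diluted compounds over 3 h at 4° C. Bound protein was detected with streptavidin-peroxidase and ABTS substrate by absorbance. IC50 values are means of several measurements.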
Chain of biotinylated human Gal-3 (hGal-3) (P17931 whole entry): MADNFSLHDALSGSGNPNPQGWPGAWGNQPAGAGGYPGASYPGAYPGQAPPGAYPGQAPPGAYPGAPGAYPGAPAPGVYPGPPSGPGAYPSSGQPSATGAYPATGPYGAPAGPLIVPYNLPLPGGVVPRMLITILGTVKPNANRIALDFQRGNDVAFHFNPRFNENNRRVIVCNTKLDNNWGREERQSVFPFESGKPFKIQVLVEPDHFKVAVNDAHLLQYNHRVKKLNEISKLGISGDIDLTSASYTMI

The target of the next test is human Gal-1 (hGal-1) (Homo sapiens, UniProt P09382). Description: Competitive binding assay: biotinylated hGal-1 binding to microplate-adsorbed asialofetuin (ASF), spectrophotometric. Conditions: hGal-1 binding to asialofetuin; Table 15; R and S epimers of selected Examples also listed; read-out: IC50 (Galectin-1 inhibition). A digest of the protocol: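 Biotinylated hGal-1 (300-1000 ng/mL) incubated with compound on asialofetuin-coated plates 3 hours at 4 °C, washed, then streptavidin-peroxidase (80 ng/mL) 1 hour at 4 °C. ABTS substrate read spectrophotometrically; IC50 reported as mean of several measurements.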
Chain of human Gal-1 (hGal-1) (P09382 whole entry): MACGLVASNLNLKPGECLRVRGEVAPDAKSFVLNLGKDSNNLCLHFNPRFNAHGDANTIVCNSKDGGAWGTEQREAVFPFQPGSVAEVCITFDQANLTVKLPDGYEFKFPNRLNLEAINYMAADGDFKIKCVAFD

Setting [2] is: Gal-3 inhibition, Table 5, read-out: IC50.
Where [3] appears, read: Gal-3 inhibition, Table 4, read-out: IC50.
[4] abbreviates: Table 12, hGal-3, read-out: IC50 (Gal-3 inhibition).
The mark [5] stands for this setting: Gal-3 inhibition, Table 7, read-out: IC50.
[6] abbreviates: Table 10, hGal-3, read-out: IC50 (Gal-3 inhibition).
[7] abbreviates: Table 9, hGal-3, read-out: IC50 (Gal-3 inhibition).

In the case of `CN(CC(F)(F)F)C(=O)[C@@H](S[C@@H]1O[C@H](CO)[C@H](O)[C@H](n2cc(-c3cc(F)c(F)c(F)c3)nn2)[C@H]1O)C1(O)CCCCC1` [Example 2.39.219S., (S)-2-(((2S,3R,4S,5R,6R)-3,5-Dihydroxy-6-(hydroxymethyl)-4-(4-(3,4,5-trifluorophenyl)-1H-1,2,3-triazol-1-yl)tetrahydro-2H-pyran-2-yl)thio)-2-(1-hydroxycyclohexyl)-N-methyl-N-(2,2,2-trifluoroethyl)acetamide], the IC50 in test [1] (setting [2]) came out at 60 nM; on human Gal-1 (hGal-1), 100 nM.
As for `CN(Cc1ccccc1)C(=O)C(S[C@@H]1O[C@H](CO)[C@H](O)[C@H](n2cc(-c3cc(F)c(F)c(F)c3)nn2)[C@H]1O)C1(O)CCOCC1` (stereo partly drawn) [Example 2.41.207., N-Benzyl-2-(((2S,3R,4S,5R,6R)-3,5-dihydroxy-6-(hydroxymethyl)-4-(4-(3,4,5-trifluorophenyl)-1H-1,2,3-triazol-1-yl)tetrahydro-2H-pyran-2-yl)thio)-2-(4-hydroxytetrahydro-2H-pyran-4-yl)-N-methylacetamide], the IC50 in test [1] (setting [3]) amounted to 70 nM; at human Gal-1 (hGal-1), 72 nM.
Regarding `CO[C@@H]1[C@@H](n2cc(-c3cc(F)c(F)c(F)c3)nn2)[C@@H](O)[C@@H](CO)O[C@H]1SC(C(=O)N(C)CCC(C)(C)C)C1(O)CCC(F)(F)CC1` (stereo partly drawn) [Example 2.44.225.I., 2-(4,4-Difluoro-1-hydroxycyclohexyl)-N-(3,3-dimethylbutyl)-2-(((2S,3R,4S,5R,6R)-5-hydroxy-6-(hydroxymethyl)-3-methoxy-4-(4-(3,4,5-trifluorophenyl)-1H-1,2,3-triazol-1-yl)tetrahydro-2H-pyran-2-yl)thio)-N-methylacetamide], the IC50 in test [1] (setting [4]) was 100 nM; at human Gal-1 (hGal-1), 120 nM.
Take `CN(CC1CC1)C(=O)[C@H](S[C@@H]1O[C@H](CO)[C@H](O)[C@H](n2cc(-c3cc(F)c(F)c(F)c3)nn2)[C@H]1O)C1(O)CC(F)(F)C1` [Example 2.33.218R., (R)-N-(Cyclopropylmethyl)-2-(3,3-difluoro-1-hydroxycyclobutyl)-2-(((2S,3R,4S,5R,6R)-3,5-dihydroxy-6-(hydroxymethyl)-4-(4-(3,4,5-trifluorophenyl)-1H-1,2,3-triazol-1-yl)tetrahydro-2H-pyran-2-yl)thio)-N-methylacetamide]: the half-maximal inhibitory concentration (IC50) came to 440 nM in test [1] (setting [2]) and 580 nM at human Gal-1 (hGal-1).
Regarding “(R)-2-(((2S,3R,4S,5R,6R)-3,5-Dihydroxy-6-(hydroxymethyl)-4-(4-(3,4,5-trifluorophenyl)-1H-1,2,3-triazol-1-yl)tetrahydro-2H-pyran-2-yl)thio)-2-(1-hydroxycyclohexyl)-N-methyl-N-(pyridin-2-ylmethyl)acetamide [Example 2.39.224R.]”, the concentration for half-maximal inhibition (IC50) in test [1] (setting [2]) came out at 1400 nM; at human Gal-1 (hGal-1), 2820 nM.
As to `O=C([C@H](S[C@@H]1O[C@H](CO)[C@H](O)[C@H](n2cc(-c3cc(F)c(F)c(F)c3)nn2)[C@H]1O)C1(O)CCOCC1)N1CCCCC1` [Example 2.41.208R., (R)-2-(((2S,3R,4S,5R,6R)-3,5-Dihydroxy-6-(hydroxymethyl)-4-(4-(3,4,5-trifluorophenyl)-1H-1,2,3-triazol-1-yl)tetrahydro-2H-pyran-2-yl)thio)-2-(4-hydroxytetrahydro-2H-pyran-4-yl)-1-(piperidin-1-yl)ethan-1-one], the IC50 in test [1] (setting [3]) amounted to 1650 nM; on human Gal-1 (hGal-1) it was 32300 nM.
For `CCN(C)C(=O)C(S[C@@H]1O[C@H](CO)[C@H](O)[C@H](n2cc(-c3cc(F)c(F)c(F)c3)nn2)[C@H]1O)C(O)c1ccn(C)n1` (stereo partly drawn) [Example 2.65.203., 2-(((2S,3R,4S,5R,6R)-3,5-dihydroxy-6-(hydroxymethyl)-4-(4-(3,4,5-trifluorophenyl)-1H-1,2,3-triazol-1-yl)tetrahydro-2H-pyran-2-yl)thio)-N-ethyl-3-hydroxy-N-methyl-3-(1-methyl-1H-pyrazol-3-yl)propanamide], the concentration for half-maximal inhibition (IC50) in test [1] (setting [5]) amounted to 650 nM; on human Gal-1 (hGal-1) it was 3050 nM.
Turning to `CCN(C)C(=O)C(S[C@@H]1O[C@H](CO)[C@H](O)[C@H](n2cc(-c3cc(F)c(F)c(F)c3)nn2)[C@H]1O)C1(O)CCN(S(=O)(=O)C2CC2)CC1` (stereo partly drawn) [Example 2.51.203., 2-(1-(Cyclopropylsulfonyl)-4-hydroxypiperidin-4-yl)-2-(((2S,3R,4S,5R,6R)-3,5-dihydroxy-6-(hydroxymethyl)-4-(4-(3,4,5-trifluorophenyl)-1H-1,2,3-triazol-1-yl)tetrahydro-2H-pyran-2-yl)thio)-N-ethyl-N-methylacetamide], the IC50 in test [1] (Table 8, hGal-3, read-out: IC50 (Gal-3 inhibition)) was determined as 30 nM; at human Gal-1 (hGal-1), 70 nM.
In the case of “(S)-2-(4,4-Difluoro-1-hydroxycyclohexyl)-2-(((2S,3R,4S,5R,6R)-3,5-dihydroxy-6-(hydroxymethyl)-4-(4-(3,4,5-trifluorophenyl)-1H-1,2,3-triazol-1-yl)tetrahydro-2H-pyran-2-yl)thio)-1-(piperidin-1-yl)ethan-1-one [Example 2.44.208S.]”, the half-maximal inhibitory concentration (IC50) in test [1] (setting [2]) turned out to be 20 nM; on human Gal-1 (hGal-1), 30 nM.
As to `CCN(C)C(=O)C(S[C@@H]1O[C@H](CO)[C@H](O)[C@H](n2cc(-c3cc(F)c(F)c(F)c3)nn2)[C@H]1OC)C1(O)CCC(F)(F)CC1` (stereo partly drawn) [Example 2.44.203.I., 2-(4,4-Difluoro-1-hydroxycyclohexyl)-N-ethyl-2-(((2S,3R,4S,5R,6R)-5-hydroxy-6-(hydroxymethyl)-3-methoxy-4-(4-(3,4,5-trifluorophenyl)-1H-1,2,3-triazol-1-yl)tetrahydro-2H-pyran-2-yl)thio)-N-methylacetamide], the concentration for half-maximal inhibition (IC50) in test [1] (setting [4]) was 40 nM; at human Gal-1 (hGal-1), 120 nM.
`Cn1ccc(C(O)C(S[C@@H]2O[C@H](CO)[C@H](O)[C@H](n3cc(-c4cc(F)c(F)c(F)c4)nn3)[C@H]2O)C(=O)N2CCC2)n1` (stereo partly drawn) [Example 2.65.206., 1-(Azetidin-1-yl)-2-(((2S,3R,4S,5R,6R)-3,5-dihydroxy-6-(hydroxymethyl)-4-(4-(3,4,5-trifluorophenyl)-1H-1,2,3-triazol-1-yl)tetrahydro-2H-pyran-2-yl)thio)-3-hydroxy-3-(1-methyl-1H-pyrazol-3-yl)propan-1-one]: the IC50 in test [1] (setting [5]) stood at 1040 nM; on human Gal-1 (hGal-1), 7290 nM.
As for `CCN(Cc1ccccc1)C(=O)C(S[C@@H]1O[C@H](CO)[C@H](O)[C@H](n2cc(-c3cc(F)c(F)c(F)c3)nn2)[C@H]1OC)C1(O)CCC(F)(F)CC1` (stereo partly drawn) [Example 2.44.240.I.], the figures for the IC50 (in test [1] (setting [6]); at human Gal-1 (hGal-1)) were 40 nM and 280 nM, respectively.
Turning to “1-(4,4-Difluoropiperidin-1-yl)-2-(4-hydroxy-2,2-dimethyltetrahydro-2H-pyran-4-yl)-2-(((2S,3R,4S,5R,6R)-5-hydroxy-6-(hydroxymethyl)-3-methoxy-4-(4-(3,4,5-trifluorophenyl)-1H-1,2,3-triazol-1-yl)tetrahydro-2H-pyran-2-yl)thio)ethan-1-one [Example 2.43.226.I.]”, the half-maximal inhibitory concentration (IC50) came to 250 nM in test [1] (Table 13, hGal-3, read-out: IC50 (Gal-3 inhibition)) and 460 nM on human Gal-1 (hGal-1).
As to `CN(CC1CC1)C(=O)[C@@H](S[C@@H]1O[C@H](CO)[C@H](O)[C@H](n2cc(-c3cc(F)c(F)c(F)c3)nn2)[C@H]1O)C1(O)CCOCC1` [Example 2.41.218S., (S)-N-(Cyclopropylmethyl)-2-(((2S,3R,4S,5R,6R)-3,5-dihydroxy-6-(hydroxymethyl)-4-(4-(3,4,5-trifluorophenyl)-1H-1,2,3-triazol-1-yl)tetrahydro-2H-pyran-2-yl)thio)-2-(4-hydroxytetrahydro-2H-pyran-4-yl)-N-methylacetamide], the IC50 in test [1] (setting [3]) is 20 nM; at human Gal-1 (hGal-1), 50 nM.
Regarding `CCN(C(=O)C(S[C@@H]1O[C@H](CO)[C@H](O)[C@H](n2cc(-c3cc(F)c(F)c(F)c3)nn2)[C@H]1O)C1(O)CCOCC1)c1ccccc1` (stereo partly drawn) [Example 2.41.232., 2-(((2S,3R,4S,5R,6R)-3,5-Dihydroxy-6-(hydroxymethyl)-4-(4-(3,4,5-trifluorophenyl)-1H-1,2,3-triazol-1-yl)tetrahydro-2H-pyran-2-yl)thio)-N-ethyl-2-(4-hydroxytetrahydro-2H-pyran-4-yl)-N-phenylacetamide], the IC50 stood at 90 nM in test [1] (setting [7]) and 60 nM on human Gal-1 (hGal-1).
Consider `CCN(C(=O)[C@H](S[C@@H]1O[C@H](CO)[C@H](O)[C@H](n2cc(-c3cc(F)c(F)c(F)c3)nn2)[C@H]1OC)C1(O)CCC(F)(F)CC1)C1CC1` [Example 2.44.238R.I.], for which the IC50 in test [1] (setting [6]) is 1000 nM; on human Gal-1 (hGal-1), greater than 100000 nM.
As for `CO[C@@H]1[C@@H](n2cc(-c3cc(F)c(F)c(F)c3)nn2)[C@@H](O)[C@@H](CO)O[C@H]1SC(C(=O)N(C)CC(F)(F)F)C1(O)CCC(F)(F)CC1` (stereo partly drawn) [Example 2.44.241.I., 2-(4,4-Difluoro-1-hydroxycyclohexyl)-2-(((2S,3R,4S,5R,6R)-5-hydroxy-6-(hydroxymethyl)-3-methoxy-4-(4-(3,4,5-trifluorophenyl)-1H-1,2,3-triazol-1-yl)tetrahydro-2H-pyran-2-yl)thio)-N-methyl-N-(2,2,2-trifluoroethyl)acetamide], the half-maximal inhibitory concentration (IC50) amounted to 180 nM in test [1] (setting [4]) and 650 nM at human Gal-1 (hGal-1).
Consider `CN(C(=O)[C@H](S[C@@H]1O[C@H](CO)[C@H](O)[C@H](n2cc(-c3cc(F)c(F)c(F)c3)nn2)[C@H]1O)C1(O)CCOCC1)c1cccnc1` [Example 2.41.234R], for which the figures for the 50% inhibitory concentration (IC50) (in test [1] (setting [7]); on human Gal-1 (hGal-1)) were 7800 nM and 10900 nM, respectively.
